Entries after “also recorded” stand apart in the source; their conditions may differ.
Legend:
Format in all cases: physicochemical
[1] = Thermogravimetric analysis (TGA); settings: heated 30° C. to 350° C. at 10° C./min
Experimental: The TGA was measured using Mettler Toledo TGA/DSC 1 module. About 4-8 mg of the sample is weighed and put into a 100 μL Al crucible (flat-bottomed aluminum crucibles). Then, TGA measurement is performed while the sample is heated from 30° C. to 350° C. at a rate of 10° C./min. During the measurement, nitrogen gas is supplied to the inside of the instrument at a rate of 80 mL/min to prevent the inflow of oxygen and other gases. Data collection and evaluation were performed using the software STARe.

[2] = Stability assessment (HPLC) under accelerated and harsh storage conditions; settings: for Stability assessment, HPLC content: in % (unit assumed)
Experimental: About 10-30 mg of the sample was stored for 4 weeks in an open state under the accelerated condition (40° C., 75% RH) or in a sealed state under the harsh condition in an oven at 80° C. [table]

[3] = Dynamic vapor sorption (DVS) analysis
Experimental: DVS was measured using automated gravimetric vapor sorption analyzer equipped with Cahn D200 ultra-microbalance (DVS Intrinsic apparatus, Surface Measurement System Ltd., UK). First, a sample of 10-20 mg was put in a sample pan and hung on a hang-down wire, and measurement was started when the weight and humidity reached equilibrium. In one cycle, relative humidity was increased from 0% to 90% and then dropped back to 0%. Two cycles were carried out. The experiment was carried out in a way that the relative humidity was increased at 10% increment using a dm/dt method. The experiment was carried out at room temperature (25° C.)

weight loss before degradation (TGA) [1]: no weight loss was observed | temperature up to which thermally stable (TGA) ([1]; error ±5° C.): up to 270 °C | Stability assessment, HPLC content ([2]; Accelerated condition (40° C./75% RH), open state, Day 3): 96.35 | Stability assessment, HPLC content ([2]; Accelerated condition (40° C./75% RH), open state, Week 1): 96.02 | Stability assessment, HPLC content ([2]; Accelerated condition (40° C./75% RH), open state, Week 2): 96.08 | Stability assessment, HPLC content ([2]; Accelerated condition (40° C./75% RH), open state, Week 4): 95.69 | Stability assessment, HPLC content ([2]; Harsh condition (80° C.), sealed state, Day 3): 96.54 | Stability assessment, HPLC content ([2]; Harsh condition (80° C.), sealed state, Week 1): 95.74 | Stability assessment, HPLC content ([2]; Harsh condition (80° C.), sealed state, Week 2): 94.82 | Stability assessment, HPLC content ([2]; Harsh condition (80° C.), sealed state, Week 4): 93.42 | Stability assessment, HPLC content ([2]; Initial): 96.01 | decrease in the content ([2]; harsh condition (closed state, 80° C.), 4 weeks): about 2.6% | physical change after DVS (XRPD pattern vs initial) ([3]; XRPD after DVS analysis): no physical change occurred | total weight gain (DVS) ([3]; between 0-90% RH, 25° C.): 1.25 % w/w
SMILES: CC(C)C(=O)N([C@H]1C[C@@H](C(=O)N2CCOCC2)N(C(=O)[C@@H]2CN(C(C)(C)C)C[C@H]2c2ccc(Cl)cc2)C1)[C@H]1CC[C@@H](C)CC1 [Example 1, N-((3S,5S)-1-((3S,4R)-1-(tert-butyl)-4-(4-chlorophenyl)pyrrolidine-3-carbonyl)-5-(morpholine-4-carbonyl)pyrrolidin-3-yl)-N-((1s,4R)-4-methylcyclohexyl)isobutyramide]
chemical stability (HPLC), result in words ([2]; accelerated condition (40° C., 75% RH), 4 weeks, listed as crystalline form II): showed chemical stability for 4 weeks; also recorded: exhibited chemical stability for 4 weeks

Reference: patent US20240051944A1, “CRYSTALLINE FORM II OF MELANOCORTIN RECEPTOR AGONIST COMPOUND AND PREPARATION METHOD THEREFOR” (LG CHEM, LTD., priority 2020, published 2024)
